Data on 12 compounds can be found in publication PMC8537218, “Discovery of a Novel Class of Norovirus Inhibitors with High Barrier of Resistance” (Pharmaceuticals, 2021).

Each structure is given as a SMILES string. Read-outs that look alike come from different tables or passages of the source.

One data set deals with MNV. The experiment in a line: Time-of-drug-addition assay (TOA) in MNV-infected RAW 264.7 cells. The format is cell-based, Murine norovirus. Particulars: time-of-addition experiment. How it is done: RAW 264.7 cells (4 × 10^5 cells/mL) were infected with MNV (MOI of 1). After 1 h at 4 °C, cells were washed with cold (4 °C) DMEM to remove unbound viruses. Cells were incubated at 37 °C to start the infection. To study the replication kinetics of MNV supernatant and cells were harvested, from untreated cultures, every 2 h until 24 h post-infection (pi) and viral RNA was quantified by RT-qPCR. In parallel, another set of infected cultures were treated with compound. The compound was added at 2 h intervals and cultures were further incubated until 24 h pi, supernatant and cells were collected separately for determination of the viral RNA by RT-qPCR. The isolation of the extracellular MNV RNA from cell culture supernatant was done by the NucleoSpin RNA Virus Kit (Macherey–Nagel), and the intracellular RNA was extracted from cells by the RNeasy kit (Qiagen).

The subject of data set [1] is MNV.CW3/S131T and MNV.CW3/Y154F. Nature of the data set: Antiviral assay on reverse-engineered MNV.CW3 mutant viruses (S131T, Y154F). In kind it is cell-based, Murine norovirus. Particulars: single mutations S131T or Y154F in MNV backbone. How it is done: The desired mutations were introduced into the MNV.CW3 cDNA clones using the QuikChange II XL mutagenesis kit (Agilent) according to the manufacturer’s instructions. The presence of the desired mutation in the produced construct was confirmed by PCR and sequencing was done by Macrogen Inc. Sequences were analyzed and mutations were detected using the Geneious software.
The MNV.CW3 mutant viral stocks were obtained by transfecting the mutated plasmid pMNV CW3 (kindly provided by Prof. Wobus, University of Michigan) in Huh 7 Lunet cells expressing the MNV receptor CD300lf (kindly provided by Prof. Taube, University of Lübeck). Huh-7 CD300lf cells were cultured under selective pressure of G418. The Huh-7 CD300lf cells were seeded in 6-well plates at a density of 2 × 10^5 cells/mL in 2.5 mL of complete media. After 24 h, the cells were transfected with 2.5 μg of pMNV CW3 plasmid DNA using the TransIT mRNA Transfection Kit (Mirus Bio Corporation) according to the manufacturer’s protocol. Red fluorescent protein (RFP) was used as a positive control for transfection. Transfected cells were incubated for 48 h, cells underwent two freeze thaw cycles and the virus was harvested from the supernatants after centrifugation (10 min, 1000× g) and stored at −80 °C. Virus stocks were passaged for three times on BV-2 cells and followed by two consecutive passages on RAW 264.7 cells. Viral titers were determined by serial dilutions on RAW 264.7 cells seeded in 96-well plates.
The assessment of the antiviral activity of compounds on resistant viruses was performed similarly as the regular antiviral assay on MNV. First, the titer of the resistant viruses was determined by endpoint titration. A concentration of 30× TCID50 was used for each virus in the antiviral assays. RAW 264.7 cells (1 × 10^4 cells/well) were seeded in the presence of a dilution series of compounds and infected. Antiviral activity was determined using the MTS method. The 50% effective concentration (EC50) was defined as the compound concentration that protected 50% of the cells from CPE.

In data set [2] the test system is Murine norovirus type 1, strain CW1. The experiment in a line: MNV-induced CPE reduction assay (MTS read-out) in RAW 264.7 cells. Particulars: MNV CW1, RAW 264.7 cells, read-out: MNV EC50 ± SD. In kind it is cell-based. The procedure:
(§1) Norovirus: The experiment was performed as described earlier. In short, RAW 264.7 cells (1 × 10^4 cells/well) were infected with MNV.CW1 in the presence of a dilution series of compounds. Antiviral activity and cytotoxicity were determined using a colometric assay using 3-(4,5-dimethylthiazol-2-yl)-5-(3-carboxymethoxyphenyl)-2-(4-sulfophenyl)-2H-tetrazolium (MTS). The 50% effective concentration (EC50) was defined as the compound concentration that protected 50% of the cells from CPE. The cell viability % was calculated as (ODtreated/ODCC) […] and the 50% cytotoxic concentration (CC50) was defined as the compound concentration that reduces the number of viable cells by 50%.

Data set [3] is described as follows: Cytotoxicity assay (MTS) on non-infected RAW 264.7 cells. Particulars: mouse, non-infected RAW 264.7 cells, cytotoxic concentration to induce 50% death of non-infected RAW 264.7 cells; read-out: MNV CC50 ± SD. In kind it is cell-based. The procedure:
as §1

In data set [4] the test system is HuNoV GI.1 replicon (Norwalk replicon). The experiment in a line: HuNoV GI.1 replicon assay in HG23 cells (RT-qPCR). The format is cell-based, Human norovirus. Particulars: Norovirus, HG23, 72 h, Norwalk replicon (human GI.1), HG23 cells, 72 h, replicon RNA by RT-qPCR; read-out: HuNoV Replicon EC50 ± SD. The procedure:
HuNoV GI.1 replicon: The experiment was performed as described earlier with minor modifications. In short, HG23 cells (7.5 × 10^2 cells/well) were seeded into the wells of a 96-well plate without G418 (Geneticin Selective Antibiotic). After 24 h of incubation, serial dilutions of compounds were added. Cells were further incubated for 72 h, then cells were collected for RNA load quantification by RT-qPCR. To determine relative levels of Norwalk virus replicon RNA, β-actin was used as a normalizer and ratios were calculated as previously described.
In general terms: A replicon is a self-replicating genome or part of one, used to study replication in cells.

A further data set deals with RAW 264.7 cells. Nature of the data set: Cytotoxicity assay (MTS) on non-infected RAW 264.7 cells. The format is cell-based. Particulars: RAW 264.7 cells. How it is done: as §1
Where [5] appears, read: RAW264.7, concentration inhibiting norovirus induced cell death (CPE) by 50%.

By EC50 is commonly meant the concentration that produces a half-maximal response. In general, CC50 refers to the concentration that lowers cell viability or growth by half. In general, melting point refers to the temperature, or range, at which the solid turns liquid.

In the case of `C[C@@]1(O)[C@H](O)[C@@H](CO)O[C@H]1n1ccc(N)nc1=O` [2CMC, 2′-C-methylcytidine, reference compound], the “step of the MNV replication cycle at which the compound acts” value with MNV is recorded as “onset of the viral genome replication”. In addition, the “shift in EC50 / sensitivity of mutant viruses” value in data set [1] is “remained equally sensitive”.
For `Cc1cc(C)cc(S(=O)(=O)c2c(C(=O)Nc3ccc(CO)cc3)[nH]c3ccc(Cl)cc23)c1` [compound 1, 5-Chloro-3-((3,5-dimethylphenyl)sulfonyl)-N-(4-(hydroxymethyl)phenyl)-1H-indole-2-carboxamide], the melting point is 220 to 221 °C. In addition, in data set [2] (setting [5]), the EC50 is 0.5 ± 0.1 µM. Besides, in data set [2] (concentration inhibiting norovirus induced cell death (CPE) by 50%), the 50% effective concentration (EC50) is 0.52 ± 0.07 µM. Moreover, the CC50 in data set [3] is over 100 µM. The EC50 in data set [4] was about 2 µM.
With `Cc1cc(C)cc(S(=O)(=O)c2c(C(=O)NCc3ccccc3)[nH]c3ccc(Cl)cc23)c1` [compound 2, N-Benzyl-5-chloro-3-((3,5-dimethylphenyl)sulfonyl)-1H-indole-2-carboxamide], the EC50 was over 100 µM in data set [2] (setting [5]) and 3.66 ± 0.66 µM in data set [4]. Moreover, in data set [3], the cytotoxic concentration (CC50) was over 100 µM.
As to `Cc1cc(C)cc(S(=O)(=O)c2c(C(=O)NCCO)[nH]c3ccc(Cl)cc23)c1` [compound 3, 5-Chloro-3-((3,5-dimethylphenyl)sulfonyl)-N-(2-hydroxyethyl)-1H-indole-2-carboxamide], the concentration for a half-maximal effect (EC50) in data set [2] (setting [5]) is over 100 µM; in data set [4], 47.7 ± 3.39 µM. Also, the CC50 in data set [3] worked out at 88.7 ± 4.75 µM.
Compound `Cc1cc(C)cc(S(=O)(=O)c2c(C(=O)NCc3ccc(O)cc3)[nH]c3ccc(Cl)cc23)c1` [compound 4, 5-Chloro-3-((3,5-dimethylphenyl)sulfonyl)-N-(4-hydroxybenzyl)-1H-indole-2-carboxamide] displayed a melting point of 236 to 237 °C. Further, the EC50 in data set [2] (setting [5]) was over 100 µM. Besides, in data set [3], the CC50 stood at 3.48 ± 1.1 µM. Also, the “cytotoxicity (in words)” value with RAW 264.7 cells is listed as “highly cytotoxic”. Moreover, in data set [4], the EC50 is 88.3 ± 4.75 µM.
In the case of `O=C(Nc1ccc(CO)cc1)c1[nH]c2ccc(Cl)cc2c1S(=O)(=O)c1ccccc1` [compound 5, 5-Chloro-N-(4-(hydroxymethyl)phenyl)-3-(phenylsulfonyl)-1H-indole-2-carboxamide], the melting point fell in the range of 152 to 155 °C. Besides, the EC50 in data set [2] (setting [5]) was over 100 µM. In data set [3], the CC50 amounted to 34.9 ± 5.03 µM.
`Cc1cc(C)cc(Cc2c(C(=O)NCc3ccc(CO)cc3)[nH]c3ccc(Cl)cc23)c1` [compound 7, 5-Chloro-3-(3,5-dimethylbenzyl)-N-(4-(hydroxymethyl)benzyl)-1H-indole-2-carboxamide] had a melting point of 171 to 174 °C. Besides, the EC50 in data set [2] (setting [5]) was 0.84 ± 0.22 µM. In data set [3], the CC50 was determined as 9.27 ± 6.6 µM. Further, the EC50 in data set [4] worked out at 5.59 ± 2.47 µM.
In the case of `Cc1cc(C)cc(C(=O)c2c(C(=O)NCc3ccc(CO)cc3)[nH]c3ccc(Cl)cc23)c1` [compound 8, 5-Chloro-3-(3,5-dimethylbenzoyl)-N-(4-(hydroxymethyl)benzyl)-1H-indole-2-carboxamide], the melting point lay within 271 to 274 °C. Also, the EC50 in data set [2] (setting [5]) was over 100 µM. Moreover, the CC50 in data set [3] worked out at 7.97 ± 15.3 µM.
In the case of `Cc1cc(C)cc(Sc2c(C(=O)NCc3ccc(CO)cc3)[nH]c3ccc(Cl)cc23)c1` [compound 9, 5-Chloro-3-((3,5-dimethylphenyl)thio)-N-(4-(hydroxymethyl)benzyl)-1H-indole-2-carboxamide], the melting point fell in the range of 212 to 215 °C. Further, the EC50 in data set [2] (setting [5]) was determined as 4.39 ± 4.78 µM. The CC50 in data set [3] came to 31.7 ± 8.01 µM. Besides, the EC50 in data set [4] amounted to 11.8 ± 8.4 µM.
In the same order, the values of `O=C(NCc1ccc(CO)cc1)c1[nH]c2ccc(Cl)cc2c1S(=O)(=O)c1ccccc1` [compound 10, 5-Chloro-N-(4-(hydroxymethyl)benzyl)-3-(phenylsulfonyl)-1H-indole-2-carboxamide] are 182 to 185 °C, 0.63 ± 0.48 µM, 25.7 ± 34.9 µM and 18.5 ± 16.3 µM.
`Cc1cc(C)cc(S(=O)(=O)c2c(C(=O)NCCc3ccc(O)cc3)[nH]c3ccc(Cl)cc23)c1` [compound 11, 5-Chloro-3-((3,5-dimethylphenyl)sulfonyl)-N-(4-hydroxyphenethyl)-1H-indole-2-carboxamide] returned a melting point of 231 to 234 °C. Moreover, the EC50 in data set [2] (setting [5]) is 36 ± 23.3 µM. Also, in data set [3], the CC50 was determined as 8.49 ± 8.09 µM. Moreover, in the data set on RAW 264.7 cells, the “cytotoxicity (in words)” value is reported as “highly cytotoxic”. The EC50 in data set [4] stood at 27.5 ± 28.7 µM.
As for `CCOC(=O)/C=C/[C@H](C[C@@H]1CCNC1=O)NC(=O)[C@@H](CC(=O)[C@@H](NC(=O)c1cc(C)on1)C(C)C)Cc1ccc(F)cc1` [rupintrivir], the “shift in EC50 / sensitivity of mutant viruses” value in data set [1] is on record as “remained equally sensitive”.
